Laboratory results published in patent US20190231771A1, “METHODS FOR TREATMENT AND PREVENTION OF OPIOID INDUCED CONSTIPATION USING ORAL COMPOSITIONS OF METHYLNALTREXONE” (Salix Pharmaceuticals, Ltd., priority 2011, published 2019).
Where “and” joins values, the source holds several entries; their conditions need not be identical. Equal entries are not always repeated. Entries after “also recorded” stand apart in the source; their conditions may differ. Where two headings read alike, the source gives them in different places.

What was measured:
[1] = Food effect study: single oral 450 mg MNTX fasted vs high-fat breakfast, 2-period crossover; type: in vivo, human; conditions: for Cmax / half-life / AUC(0-inf) / AUC(0-t) / Tmax: both sexes, human, plasma, oral, 450 mg; for half-life: harmonic mean; for Tmax: median
Method: Presented herein is a single-dose, 2-period crossover study to evaluate the effect of a standard high-fat breakfast on the pharmacokinetics of a single oral dose of 450 mg (3×150 mg tablets) MNTX. The study had 2 arms and 2 dosing periods.
Thirty-two subjects were enrolled into this study. Subjects were randomized at a 1:1 ratio to Arm 1 (fasted then fed) or Arm 2 (fed then fasted). Randomization was stratified by sex. Each subject received a single dose of MNTX 450 mg (administered as 3×150 mg tablets) with a high fat meal (MNTX fed) and after fasting (MNTX fasted). The fasted/fed study periods were separated by 7 days. The sequence of fasted/fed or fed/fasted dosing on Days 1 and 8 was determined by randomization on Day 1.
For the fasted treatment, a single 450 mg (3×150 mg) oral dose of MNTX tablets was administered to subjects following a supervised overnight fast of at least 10 hours. No food was allowed for at least 4 hours post dose.
For the fed treatment, a standard high-fat breakfast was given to the subjects following an overnight fast of at least 10 hours. A single 450 mg (3×150 mg) oral dose of MNTX tablets was administered to subjects 30 minutes after the subject began the meal. No food was allowed for at least 4 hours after drug administration.
Subjects were administered a single oral dose of MNTX tablets (450 mg) on Day 1 and Day 8 after a high fat meal or fasting as follows: (a) MNTX 450 mg (orally as 3×150 mg tablets) administered after a high-fat (high caloric) breakfast, or (b) MNTX 450 mg (orally as 3×150 mg tablets) administered after fasting.
Subjects received a single dose of MNTX 450 mg administered orally as 3×150 mg tablets immediately after a high fat/high calorie meal (MNTX fed) and after fasting (MNTX fasted). A 7-day washout period separated the fasted/fed crossover periods. The sequence of fasted/fed or fed/fasting dosing on Days 1 and 8 was determined by randomization on Day 1. Subjects fasted overnight for a minimum of 10 hours prior to administration of a high fat meal with the single dose of study drug (MNTX fed) or 10 hours prior to administration of the single dose of study drug (MNTX fasted).
Each dose on Day 1 and 8 was administered with 240 mL of room temperature drinking water, and the subjects were instructed to drink all of the water. No food was permitted for 4 hours after drug administration and water was allowed as desired except for 1 hour before and after drug administration. Approximately 4 hours after dosing, a normal meal schedule could be resumed.
A high fat/high caloric meal includes fat content of approximately 50% of total calories in the meal (approximately 800 to 1000 calories total). Subjects receiving the MNTX fed treatment regimen were required to fast for at least 10 hours before breakfast and then to eat the protocol-specified breakfast starting 30 minutes before dosing. The high-fat, high caloric breakfast consisted of the following: • Two slices of toast with ½ pat of butter on each slice. • Two eggs fried in butter. • Two strips of bacon. • Four ounces (113 g) hash brown potatoes. • Eight ounces (240 mL) of whole milk.
Plasma concentrations of MNTX were determined using a validated analytical procedure involving high performance liquid chromatography with tandem quadrupole mass spectrometric detection. Blood samples for determination of MNTX concentrations in plasma were obtained predose (approximately 1 hour prior to dose administration) on Day 1, and at 0.25, 0.5, 1, 2, 4, 6, 8, 10, 12, 16, 24, 36, 48, 72, 96, 120, 144 and 168 hours following each dose administration on Days 1 and 8. Pharmacokinetic parameters that were measured and calculated include the following: […]

[2] = rats; cited from earlier work
[3] = 450 mg Single-Dose Fasted, mean

Question: With `C[N@+]1(CC2CC2)CC[C@]23c4c5ccc(O)c4O[C@H]2C(=O)CC[C@@]3(O)[C@H]1C5.[Br-]` [MNTX, (R)—N-(cyclopropylmethyl) noroxymorphone methobromide] as the molecule, how does the CL/F [1, 3] read?
Answer: The CL/F was 1608644 mL/h.

Question: And the λz [1, 3]?
Answer: Its λz is 0.04 h⁻¹ and 0.0403 h⁻¹.

Question: And the CL/F ([1]; 450 mg Single-Dose Fed, mean)?
Answer: Its CL/F is 2961340 mL/h.

Question: What about the λz ([1]; 450 mg Single-Dose Fed, mean) of the same molecule?
Answer: Its λz is 0.04 h⁻¹ and 0.0413 h⁻¹.

Question: And the “AUC0-∞ Geometric Mean Ratio, fasted divided by fed” value ([1]; 450 mg single dose)?
Answer: Its value is 198.17%.

Question: What about the “AUClast Geometric Mean Ratio, fasted divided by fed” value ([1]; 450 mg single dose) of the same molecule?
Answer: Its value is 199.28%.

Question: What about the “AUClast and AUC0-∞ higher in fasted as compared with fed subjects” value ([1]; 450 mg single dose) of the same molecule?
Answer: Its value is “approximately 2 fold”.

Question: What about the “Cmax Geometric Mean Ratio, fasted divided by fed” value ([1]; 450 mg single dose) of the same molecule?
Answer: Its value is 273.6% and 273.62%.

Question: And the “arithmetic mean Cmax in fed subjects as share of that in fasted subjects” value ([1]; 450 mg single dose)?
Answer: The value was ~28%.

Question: And the “decrease of systemic exposure by food (as determined by AUC and Cmax)” value ([1]; 450 mg single dose)?
Answer: The value was “approximately half to three quarters”.

Question: And the “systemic exposure (AUClast and AUC0-∞) lower in fed than in fasted subjects” value ([1]; 450 mg single dose)?
Answer: The value was “approximately 50%”.

Question: What about the “bioequivalence under fed and fasted conditions (80% to 125% range)” value ([1]; 450 mg single dose, Cmax, AUClast, AUC0-∞) of the same molecule?
Answer: Its value is “nonbioequivalence; also recorded: non-bioequivalent; also recorded: not bioequivalent”.

Question: What about the “deaths, SAEs, TEAEs resulting in study discontinuation” value ([1]; 450 mg single doses) of the same molecule?
Answer: The value was “no deaths, SAEs, or TEAEs resulting in study discontinuation”.

Question: And the “effect on cardiac safety parameters or vital signs” value ([1]; 450 mg single doses)?
Answer: Its value is “No significant effect”.

Question: And the “intensity of TEAEs” value ([1]; 450 mg single doses)?
Answer: Its value is “mild”.

Question: What about the “relation of TEAEs to MNTX (investigator)” value ([1]; 450 mg single doses) of the same molecule?
Answer: Its value is “No TEAEs were considered by the investigator to be related to MNTX”.

Question: And the “subjects with headache (most frequent TEAE)” value ([1]; 450 mg single doses, 32 subjects)?
Answer: The value was 6%.

Question: What about the “subjects experiencing at least 1 TEAE” value ([1]; 450 mg single doses, 32 subjects, whole study) of the same molecule?
Answer: Its value is 16%.

Question: And the Cmax ([1]; 450 mg Single-Dose Fasted, arithmetic mean, read-out: Cmax)?
Answer: The Cmax was 45.5 ng/mL.

Question: What about the half-life ([1]; 450 mg Single-Dose Fasted) of the same molecule?
Answer: Its half-life is ~17 h.

Question: What about the AUC(0-inf) ([1]; 450 mg Single-Dose Fasted, mean, read-out: AUC0-∞) of the same molecule?
Answer: The AUC(0-inf) was 364 ng·h/mL.

Question: What about the AUC(0-t) ([1]; 450 mg Single-Dose Fasted, mean, read-out: AUClast) of the same molecule?
Answer: Its AUC(0-t) is 361 ng·h/mL.

Question: What about the Tmax ([1]; 450 mg Single-Dose Fasted) of the same molecule?
Answer: The Tmax was 2 h.

Question: What about the Cmax ([1]; 450 mg Single-Dose Fed, arithmetic mean, read-out: Cmax) of the same molecule?
Answer: The Cmax was 12.9 ng/mL.

Question: And the half-life ([1]; 450 mg Single-Dose Fed)?
Answer: The half-life was ~17 h.

Question: What about the AUC(0-inf) ([1]; 450 mg Single-Dose Fed, mean, read-out: AUC0-∞) of the same molecule?
Answer: Its AUC(0-inf) is 169 ng·h/mL.

Question: What about the AUC(0-t) ([1]; 450 mg Single-Dose Fed, mean, read-out: AUClast) of the same molecule?
Answer: Its AUC(0-t) is 166 ng·h/mL.

Question: And the Tmax ([1]; 450 mg Single-Dose Fed)?
Answer: The Tmax was 4 h.

Question: And the AUC(0-inf) ([1]; 450 mg single dose, Fasted, read-out: AUC0-∞, Geometric Least Squares Mean)?
Answer: Its AUC(0-inf) is 317 ng·h/mL.

Question: What about the AUC(0-t) ([1]; 450 mg single dose, Fasted, read-out: AUClast, Geometric Least Squares Mean) of the same molecule?
Answer: Its AUC(0-t) is 314 ng·h/mL.

Question: What about the Cmax ([1]; 450 mg single dose, Fasted, read-out: Cmax, Geometric Least Squares Mean) of the same molecule?
Answer: The Cmax was 33.4 ng/mL.

Question: What about the AUC(0-inf) ([1]; 450 mg single dose, Fed, read-out: AUC0-∞, Geometric Least Squares Mean) of the same molecule?
Answer: Its AUC(0-inf) is 160 ng·h/mL.

Question: And the AUC(0-t) ([1]; 450 mg single dose, Fed, read-out: AUClast, Geometric Least Squares Mean)?
Answer: The AUC(0-t) was 158 ng·h/mL.

Question: And the Cmax ([1]; 450 mg single dose, Fed, read-out: Cmax, Geometric Least Squares Mean)?
Answer: The Cmax was 12.2 ng/mL.

Question: And the “subjects with TEAEs” value ([1]; fasted dosing period)?
Answer: Its value is “Four”.

Question: What about the “subjects with TEAEs” value ([1]; fed dosing period) of the same molecule?
Answer: Its value is 3 subjects.

Question: What about the tolerability ([1]; single dose of MNTX 450 mg) of the same molecule?
Answer: The tolerability was “well tolerated”.

Question: And the “estimated bioavailability after oral administration” value [2]?
Answer: The value was “less than 1%”.
